# Assay results published in the NIST ThermoML archive (doi:10.1016/j.jct.2006.02.001).
# Numbers after ± are expanded uncertainties.
# Assays:
# [1] = xn = mol fraction of the nth substance listed; settings: 101 kPa, Liquid
# [2] = refractive index (Na D-line) (dimensionless); xn = mol fraction of the nth substance listed; settings: 101 kPa, Liquid
compound,measurement,setting,value
COc1ccccc1 [anisole] + Cc1ccccc1C,mass density,"[1]; 288.15 K, x1 = 0.0984",894.18 ± 0.86 kg/m3
same,mass density,"[1]; 288.15 K, x1 = 0.2473",910.8 ± 0.8 kg/m3
same,mass density,"[1]; 288.15 K, x1 = 0.376",925.35 ± 0.74 kg/m3
same,mass density,"[1]; 288.15 K, x1 = 0.4951",939.01 ± 0.69 kg/m3
same,mass density,"[1]; 288.15 K, x1 = 0.6454",956.51 ± 0.61 kg/m3
same,mass density,"[1]; 288.15 K, x1 = 0.7463",968.37 ± 0.57 kg/m3
same,mass density,"[1]; 288.15 K, x1 = 0.864",982.31 ± 0.51 kg/m3
same,mass density,"[1]; 288.15 K, x1 = 0.938",991.11 ± 0.47 kg/m3
same,mass density,"[1]; 288.15 K, x1 = 0.9745",995.42 ± 0.46 kg/m3
same,mass density,"[1]; 288.15 K, x1 = 1",998.44 ± 0.45 kg/m3
same,mass density,"[1]; 293.15 K, x1 = 0.0984",890.01 ± 0.88 kg/m3
same,mass density,"[1]; 293.15 K, x1 = 0.2473",906.56 ± 0.81 kg/m3
same,mass density,"[1]; 293.15 K, x1 = 0.376",921 ± 0.76 kg/m3
same,mass density,"[1]; 293.15 K, x1 = 0.4951",934.55 ± 0.7 kg/m3
same,mass density,"[1]; 293.15 K, x1 = 0.6454",951.98 ± 0.63 kg/m3
same,mass density,"[1]; 293.15 K, x1 = 0.7463",963.81 ± 0.58 kg/m3
same,mass density,"[1]; 293.15 K, x1 = 0.864",977.72 ± 0.53 kg/m3
same,mass density,"[1]; 293.15 K, x1 = 0.938",986.44 ± 0.49 kg/m3
same,mass density,"[1]; 293.15 K, x1 = 0.9745",990.69 ± 0.48 kg/m3
same,mass density,"[1]; 293.15 K, x1 = 1",993.65 ± 0.46 kg/m3
same,mass density,"[1]; 298.15 K, x1 = 0.0984",886.52 ± 0.89 kg/m3
same,mass density,"[1]; 298.15 K, x1 = 0.2473",902.92 ± 0.83 kg/m3
same,mass density,"[1]; 298.15 K, x1 = 0.376",917.17 ± 0.77 kg/m3
same,mass density,"[1]; 298.15 K, x1 = 0.4951",930.58 ± 0.72 kg/m3
same,mass density,"[1]; 298.15 K, x1 = 0.6454",947.89 ± 0.65 kg/m3
same,mass density,"[1]; 298.15 K, x1 = 0.7463",959.66 ± 0.6 kg/m3
same,mass density,"[1]; 298.15 K, x1 = 0.864",973.49 ± 0.54 kg/m3
same,mass density,"[1]; 298.15 K, x1 = 0.938",982.08 ± 0.51 kg/m3
same,mass density,"[1]; 298.15 K, x1 = 0.9745",986.24 ± 0.49 kg/m3
same,mass density,"[1]; 298.15 K, x1 = 1",989.15 ± 0.48 kg/m3
same,mass density,"[1]; 303.15 K, x1 = 0.0984",881.84 ± 0.91 kg/m3
same,mass density,"[1]; 303.15 K, x1 = 0.2473",898.24 ± 0.84 kg/m3
same,mass density,"[1]; 303.15 K, x1 = 0.376",912.46 ± 0.79 kg/m3
same,mass density,"[1]; 303.15 K, x1 = 0.4951",925.89 ± 0.74 kg/m3
same,mass density,"[1]; 303.15 K, x1 = 0.6454",943.26 ± 0.67 kg/m3
same,mass density,"[1]; 303.15 K, x1 = 0.7463",955.11 ± 0.62 kg/m3
same,mass density,"[1]; 303.15 K, x1 = 0.864",968.92 ± 0.56 kg/m3
same,mass density,"[1]; 303.15 K, x1 = 0.938",977.48 ± 0.53 kg/m3
same,mass density,"[1]; 303.15 K, x1 = 0.9745",981.57 ± 0.51 kg/m3
same,mass density,"[1]; 303.15 K, x1 = 1",984.37 ± 0.5 kg/m3
same,refractive index,"[2]; 288.15 K, x1 = 0.0984",1.5091 ± 0.0096
same,refractive index,"[2]; 288.15 K, x1 = 0.2473",1.5118 ± 0.0096
same,refractive index,"[2]; 288.15 K, x1 = 0.376",1.5141 ± 0.0096
same,refractive index,"[2]; 288.15 K, x1 = 0.4951",1.516 ± 0.0097
same,refractive index,"[2]; 288.15 K, x1 = 0.6454",1.5193 ± 0.0097
same,refractive index,"[2]; 288.15 K, x1 = 0.7463",1.521 ± 0.0097
same,refractive index,"[2]; 288.15 K, x1 = 0.864",1.5232 ± 0.0097
same,refractive index,"[2]; 288.15 K, x1 = 0.938",1.5245 ± 0.0097
same,refractive index,"[2]; 288.15 K, x1 = 0.9745",1.5252 ± 0.0097
same,refractive index,"[2]; 288.15 K, x1 = 1",1.5256 ± 0.0098
same,refractive index,"[2]; 293.15 K, x1 = 0.0984",1.5061 ± 0.0096
same,refractive index,"[2]; 293.15 K, x1 = 0.2473",1.508 ± 0.0096
same,refractive index,"[2]; 293.15 K, x1 = 0.376",1.5095 ± 0.0096
same,refractive index,"[2]; 293.15 K, x1 = 0.4951",1.5107 ± 0.0096
same,refractive index,"[2]; 293.15 K, x1 = 0.6454",1.5128 ± 0.0096
same,refractive index,"[2]; 293.15 K, x1 = 0.7463",1.5145 ± 0.0096
same,refractive index,"[2]; 293.15 K, x1 = 0.864",1.5156 ± 0.0097
same,refractive index,"[2]; 293.15 K, x1 = 0.938",1.5164 ± 0.0097
same,refractive index,"[2]; 293.15 K, x1 = 0.9745",1.5167 ± 0.0097
same,refractive index,"[2]; 293.15 K, x1 = 1",1.5169 ± 0.0097
same,refractive index,"[2]; 298.15 K, x1 = 0.0984",1.5033 ± 0.0096
same,refractive index,"[2]; 298.15 K, x1 = 0.2473",1.5052 ± 0.0096
same,refractive index,"[2]; 298.15 K, x1 = 0.376",1.5067 ± 0.0096
same,refractive index,"[2]; 298.15 K, x1 = 0.4951",1.5079 ± 0.0096
same,refractive index,"[2]; 298.15 K, x1 = 0.6454",1.51 ± 0.0096
same,refractive index,"[2]; 298.15 K, x1 = 0.7463",1.5117 ± 0.0096
same,refractive index,"[2]; 298.15 K, x1 = 0.864",1.5128 ± 0.0096
same,refractive index,"[2]; 298.15 K, x1 = 0.938",1.5136 ± 0.0096
same,refractive index,"[2]; 298.15 K, x1 = 0.9745",1.5139 ± 0.0096
same,refractive index,"[2]; 298.15 K, x1 = 1",1.5141 ± 0.0096
same,refractive index,"[2]; 303.15 K, x1 = 0.0984",1.5015 ± 0.0096
same,refractive index,"[2]; 303.15 K, x1 = 0.2473",1.5027 ± 0.0096
same,refractive index,"[2]; 303.15 K, x1 = 0.376",1.5048 ± 0.0096
same,refractive index,"[2]; 303.15 K, x1 = 0.4951",1.5059 ± 0.0096
same,refractive index,"[2]; 303.15 K, x1 = 0.6454",1.508 ± 0.0096
same,refractive index,"[2]; 303.15 K, x1 = 0.7463",1.5096 ± 0.0096
same,refractive index,"[2]; 303.15 K, x1 = 0.864",1.5107 ± 0.0096
same,refractive index,"[2]; 303.15 K, x1 = 0.938",1.5114 ± 0.0096
same,refractive index,"[2]; 303.15 K, x1 = 0.9745",1.5116 ± 0.0096
same,refractive index,"[2]; 303.15 K, x1 = 1",1.5117 ± 0.0096
c1ccccc1 [benzene] + COc1ccccc1,mass density,"[1]; 288.15 K, x2 = 0",884.11 ± 3.2 kg/m3
same,mass density,"[1]; 293.15 K, x2 = 0",876.53 ± 3.3 kg/m3
same,mass density,"[1]; 298.15 K, x2 = 0",873.6 ± 3.4 kg/m3
same,mass density,"[1]; 303.15 K, x2 = 0",868.23 ± 3.5 kg/m3
same,refractive index,"[2]; 288.15 K, x2 = 0",1.505 ± 0.0096
same,refractive index,"[2]; 293.15 K, x2 = 0",1.5011 ± 0.0096
same,refractive index,"[2]; 298.15 K, x2 = 0",1.4979 ± 0.0097
same,refractive index,"[2]; 303.15 K, x2 = 0",1.4849 ± 0.0099
